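96-well plates; 48 h exposure; 5 concentrations. Endpoints by linear interpolation between flanking doses. Not reached: highest tested concentration assigned. Here, GI50 denotes the concentration required for 50% inhibition of growth. TGI: total growth inhibition.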
How the values were obtained:
Test in all cases: growth of human tumour cells (NCI), 48 h
786-0 renal = system: 786-0 renal
SNB-75 CNS = system: SNB-75 CNS
RPMI-8226 leukemia = system: RPMI-8226 leukemia
SF-295 CNS = system: SF-295 CNS
OVCAR-5 ovarian = system: OVCAR-5 ovarian
OVCAR-3 ovarian = system: OVCAR-3 ovarian
UACC-257 melanoma = system: UACC-257 melanoma
ACHN renal = system: ACHN renal
BT-549 breast = system: BT-549 breast
SK-MEL-28 melanoma = system: SK-MEL-28 melanoma
CCRF-CEM leukemia = system: CCRF-CEM leukemia
SF-539 CNS = system: SF-539 CNS
HOP-92 NSCLC = system: HOP-92 NSCLC
A498 renal = system: A498 renal
SNB-19 CNS = system: SNB-19 CNS
TK-10 renal = system: TK-10 renal
RXF 393 renal = system: RXF 393 renal
NCI/ADR-RES ovarian = system: NCI/ADR-RES ovarian
SK-MEL-2 melanoma = system: SK-MEL-2 melanoma
OVCAR-4 ovarian = system: OVCAR-4 ovarian
SR leukemia = system: SR leukemia
SN12C renal = system: SN12C renal
HCT-15 colon = system: HCT-15 colon
KM12 colon = system: KM12 colon
HL-60(TB) leukemia = system: HL-60(TB) leukemia
UO-31 renal = system: UO-31 renal
OVCAR-8 ovarian = system: OVCAR-8 ovarian
T-47D breast = system: T-47D breast
SK-MEL-5 melanoma = system: SK-MEL-5 melanoma
LOX IMVI melanoma = system: LOX IMVI melanoma
EKVX NSCLC = system: EKVX NSCLC
SK-OV-3 ovarian = system: SK-OV-3 ovarian
MDA-MB-231 breast = system: MDA-MB-231 breast
MALME-3M melanoma = system: MALME-3M melanoma
A549 NSCLC = system: A549 NSCLC
MDA-MB-435 = system: MDA-MB-435
M14 melanoma = system: M14 melanoma
PC-3 prostate = system: PC-3 prostate
UACC-62 melanoma = system: UACC-62 melanoma
K-562 leukemia = system: K-562 leukemia
HCT-116 colon = system: HCT-116 colon
HCC-2998 colon = system: HCC-2998 colon
NCI-H23 lung = system: NCI-H23 lung
HOP-62 NSCLC = system: HOP-62 NSCLC
SF-268 CNS = system: SF-268 CNS
NCI-H522 lung = system: NCI-H522 lung
NCI-H226 lung = system: NCI-H226 lung
HS 578T breast = system: HS 578T breast
MCF7 breast = system: MCF7 breast
HT29 colon = system: HT29 colon
U251 CNS = system: U251 CNS
COLO 205 colon = system: COLO 205 colon

`CC(C)[C@]12O[C@H]1[C@@H]1O[C@]13[C@]1(O[C@H]1C[C@H]1C4=C(CC[C@@]13C)C(=O)OC4)[C@@H]2OC(=O)CN(C)C` was tested, and the GI50 (786-0 renal) was 32.6 nM, the TGI (786-0 renal) was > 100000 nM and the GI50 (SNB-75 CNS) was 28.6 nM. The TGI (SNB-75 CNS) was 141 nM, the GI50 (RPMI-8226 leukemia) was 18.1 nM and the TGI (RPMI-8226 leukemia) was > 100000 nM. For the same molecule, the GI50 (SF-295 CNS) was 77.7 nM, the TGI (SF-295 CNS) was > 100000 nM and the GI50 (OVCAR-5 ovarian) was 49.1 nM. The TGI (OVCAR-5 ovarian) was > 100000 nM, the GI50 (OVCAR-3 ovarian) was 20.8 nM and the TGI (OVCAR-3 ovarian) was 63.3 nM. It also gave a GI50 (UACC-257 melanoma) of 17.5 nM, a TGI (UACC-257 melanoma) of 56.3 nM and a GI50 (ACHN renal) of 21 nM. For the same molecule, the TGI (ACHN renal) was > 100000 nM, the GI50 (BT-549 breast) was 18.4 nM and the TGI (BT-549 breast) was 56.4 nM. For the same molecule, the GI50 (SK-MEL-28 melanoma) was 20.7 nM, the TGI (SK-MEL-28 melanoma) was 61.5 nM and the GI50 (CCRF-CEM leukemia) was 31.5 nM. It also gave a GI50 (SF-539 CNS) of 41.1 nM, a TGI (SF-539 CNS) of 332 nM and a GI50 (HOP-92 NSCLC) of 38.3 nM. For the same molecule, the GI50 (A498 renal) was 16.1 nM, the TGI (A498 renal) was 48.3 nM and the GI50 (SNB-19 CNS) was 286 nM. For the same molecule, the TGI (SNB-19 CNS) was > 100000 nM, the GI50 (TK-10 renal) was 48 nM and the TGI (TK-10 renal) was > 100000 nM. For the same molecule, the GI50 (RXF 393 renal) was 15.7 nM, the TGI (RXF 393 renal) was 33.6 nM and the GI50 (NCI/ADR-RES ovarian) was 48.1 nM. The TGI (NCI/ADR-RES ovarian) was > 100000 nM, the GI50 (SK-MEL-2 melanoma) was 26.7 nM and the TGI (SK-MEL-2 melanoma) was 73.2 nM. For the same molecule, the GI50 (OVCAR-4 ovarian) was 32.6 nM, the TGI (OVCAR-4 ovarian) was > 46200 nM and the GI50 (SR leukemia) was 14.3 nM. The TGI (SR leukemia) was 189 nM, the GI50 (SN12C renal) was 30.9 nM and the TGI (SN12C renal) was > 100000 nM. For the same molecule, the GI50 (HCT-15 colon) was 29.1 nM, the TGI (HCT-15 colon) was > 100000 nM and the GI50 (KM12 colon) was 208 nM. For the same molecule, the TGI (KM12 colon) was 2640 nM, the GI50 (HL-60(TB) leukemia) was 15.3 nM and the TGI (HL-60(TB) leukemia) was 118 nM. For the same molecule, the GI50 (UO-31 renal) was 14.6 nM, the TGI (UO-31 renal) was > 100000 nM and the GI50 (OVCAR-8 ovarian) was 33.6 nM. For the same molecule, the TGI (OVCAR-8 ovarian) was > 100000 nM, the GI50 (T-47D breast) was 34 nM and the TGI (T-47D breast) was > 100000 nM. The GI50 (SK-MEL-5 melanoma) was 15.2 nM, the TGI (SK-MEL-5 melanoma) was 39.6 nM and the GI50 (LOX IMVI melanoma) was 10.1 nM. The TGI (LOX IMVI melanoma) was > 100000 nM, the GI50 (EKVX NSCLC) was 110 nM and the TGI (EKVX NSCLC) was > 100000 nM. For the same molecule, the GI50 (SK-OV-3 ovarian) was 48.5 nM, the TGI (SK-OV-3 ovarian) was > 100000 nM and the GI50 (MDA-MB-231 breast) was 57.8 nM. The TGI (MDA-MB-231 breast) was > 100000 nM, the GI50 (MALME-3M melanoma) was 19.3 nM and the TGI (MALME-3M melanoma) was 73.3 nM. The GI50 (A549 NSCLC) was 58.7 nM, the GI50 (MDA-MB-435) was 17.6 nM and the TGI (MDA-MB-435) was 74.8 nM. For the same molecule, the GI50 (M14 melanoma) was 17 nM, the TGI (M14 melanoma) was 37.3 nM and the GI50 (PC-3 prostate) was 21.8 nM. For the same molecule, the TGI (PC-3 prostate) was > 100000 nM, the GI50 (UACC-62 melanoma) was 22.8 nM and the TGI (UACC-62 melanoma) was 72.4 nM. For the same molecule, the GI50 (K-562 leukemia) was 28.3 nM, the TGI (K-562 leukemia) was > 100000 nM and the GI50 (HCT-116 colon) was 12.8 nM. For the same molecule, the TGI (HCT-116 colon) was > 100000 nM, the GI50 (HCC-2998 colon) was 10.2 nM and the TGI (HCC-2998 colon) was 44 nM. For the same molecule, the GI50 (NCI-H23 lung) was 11.6 nM, the GI50 (HOP-62 NSCLC) was 31.4 nM and the GI50 (SF-268 CNS) was 37 nM. For the same molecule, the TGI (SF-268 CNS) was 367 nM, the GI50 (NCI-H522 lung) was 21.6 nM and the TGI (NCI-H522 lung) was 110 nM. For the same molecule, the GI50 (NCI-H226 lung) was 19.1 nM, the TGI (NCI-H226 lung) was 178 nM and the GI50 (HS 578T breast) was 22.7 nM. The TGI (HS 578T breast) was 88.9 nM, the GI50 (MCF7 breast) was 22 nM and the TGI (MCF7 breast) was > 100000 nM. For the same molecule, the GI50 (HT29 colon) was 17.9 nM, the TGI (HT29 colon) was > 100000 nM and the GI50 (U251 CNS) was 48.8 nM. For the same molecule, the TGI (U251 CNS) was > 100000 nM, the GI50 (COLO 205 colon) was 17 nM and the TGI (COLO 205 colon) was 42.4 nM.
